Source: ChEMBL document CHEMBL6078655, “Engineering of Novel Analogues That Are More Receptor-Selective and Potent than the Native Hormone, Insulin-like Peptide 5 (INSL5)” (J Med Chem, 2024)
pEC50, pKi: −log10 of the molar value. The source made the active and inactive calls. The calls are words filed in the database; no cut-off is given here. Where a SMILES comes first, the peptide text is derived from it. Bridges are numbered along the chain shown (N, C = ends). Roman numbers before positions name the chains, in order. [ ]: non-standard residue; d: D form. 1Nal = N[C@@H](Cc1cccc2ccccc12)C(=O)O; Agb = N=C(N)NCC[C@H](N)C(=O)O

Experiments:
[1] = target: T1, Relaxin-3 receptor 1 (Homo sapiens, UniProt Q9NSD7); experiment: Binding affinity to SmBit-tagged RXFP3 (unknown origin) expressed in HEK cells assessed as inhibition constant incubated for 1 hr by NanoBiT assay; format: cell-based; settings: for pKi: read-out: Ki
T1 sequence (Q9NSD7 whole entry): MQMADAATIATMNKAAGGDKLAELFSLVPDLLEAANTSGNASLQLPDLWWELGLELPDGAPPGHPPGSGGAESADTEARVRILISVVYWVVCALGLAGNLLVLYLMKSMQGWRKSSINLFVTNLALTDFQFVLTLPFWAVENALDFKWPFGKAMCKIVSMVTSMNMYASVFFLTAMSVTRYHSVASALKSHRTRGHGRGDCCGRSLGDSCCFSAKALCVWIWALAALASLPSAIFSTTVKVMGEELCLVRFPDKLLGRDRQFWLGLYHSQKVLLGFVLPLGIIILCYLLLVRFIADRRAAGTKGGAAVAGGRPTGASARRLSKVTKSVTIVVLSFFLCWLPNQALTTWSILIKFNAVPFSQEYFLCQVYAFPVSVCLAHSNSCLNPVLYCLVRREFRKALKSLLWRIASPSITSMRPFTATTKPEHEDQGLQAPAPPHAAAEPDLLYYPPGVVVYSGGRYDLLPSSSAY

[2] = target: T1, Relaxin-3 receptor 1; experiment: (§1) Agonist activity at RXFP3 (unknown origin) expressed in CHO cells co-transfected with pCRE-galactosidase reporter plasmid assessed as inhibition of forskolin-induced cAMP accumulation incubated for 6 hrs by reporter gene assay; format: functional, cell-based
[3] = target: T2, Relaxin-3 receptor 2 (Homo sapiens, UniProt Q8TDU9); experiment: Binding affinity to LgBiT-tagged RXFP4 (unknown origin) expressed in HEK cells assessed as inhibition constant incubated for 1 hr by NanoBiT assay; format: cell-based
T2 sequence (Q8TDU9 whole entry): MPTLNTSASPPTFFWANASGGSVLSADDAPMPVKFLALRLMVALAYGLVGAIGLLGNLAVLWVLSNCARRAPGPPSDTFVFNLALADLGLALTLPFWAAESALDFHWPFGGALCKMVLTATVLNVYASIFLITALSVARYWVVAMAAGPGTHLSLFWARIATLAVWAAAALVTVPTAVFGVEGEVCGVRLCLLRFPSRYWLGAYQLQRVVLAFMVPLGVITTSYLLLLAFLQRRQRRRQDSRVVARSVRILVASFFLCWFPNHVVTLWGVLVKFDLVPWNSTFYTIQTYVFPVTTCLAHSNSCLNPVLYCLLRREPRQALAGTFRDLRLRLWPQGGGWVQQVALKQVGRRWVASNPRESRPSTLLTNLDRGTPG

[4] = target: T2, Relaxin-3 receptor 2; experiment: Agonist activity at RXFP4 (unknown origin) expressed in CHO cells co-transfected with pCRE-galactosidase reporter plasmid assessed as inhibition of forskolin-induced cAMP accumulation incubated for 6 hrs by reporter gene assay; format: functional, cell-based; settings: for pEC50: read-out: EC50
[5] = Selectivity index, ratio of Ki for binding affinity to SmBit-tagged RXFP3 (unknown origin) expressed in HEK cells assessed as inhibition constant to Ki for binding affinity to LgBiT-tagged RXFP4 (unknown origin) expressed in HEK cells assessed as inhibition constant; format: cell-based
[6] = target: T2, Relaxin-3 receptor 2; experiment: Agonist activity at RXFP4 in HEK293T cells assessed as beta-arrestin2 recruitment pretreated with coelenterazine for 10 mins followed by compound addition by BRET assay; format: functional, cell-based
[7] = target: T2, Relaxin-3 receptor 2; experiment: Antagonist activity at RXFP4 in HEK293T cells assessed as beta-arrestin2 recruitment pretreated with coelenterazine for 10 mins followed by compound addition by BRET assay; format: functional, cell-based
[8] = target: T3, Relaxin-3 receptor 1 (Homo sapiens) (UniProt Q9NSD7); experiment: as §1; format: functional, cell-based
T3 sequence (whole entry): T1 sequence (Q9NSD7 whole entry)

Row | pKi [1] | pEC50 ([2]; cho, read-out: EC50) | EC50 ([2]; read-out: pEC50 (converted)) [nM] | pKi [3] | EC50 ([4]; read-out: pEC50 (converted)) [nM] | pEC50 [6] | Activity [7] | Activity [8] | pEC50 [4] | Ki ([1]; read-out: pKi (converted)) [nM] | Compound | Ratio Ki [5]
1 | 5.66 | < 5.00 | > 10000 | 8.88 | 9.12 | 7.39 | inactive | – | – | – | CC[C@H](C)[C@@H]1NC(=O)[C@H](Cc2ccc(O)cc2)NC(=O)[C@H]([C@@H](C)CC)NC(=O)[C@H](C(C)C)NC(=O)[C@H]([C@@H](C)O)NC(=O)[C@H](CCCNC(=N)N)NC(=O)[C@H]([C@@H](C)CC)NC(=O)[C@H](Cc2ccc(O)cc2)NC(=O)[C@H](CCC(=O)O)NC(=O)[C@H](CC(C)C)NC(=O)CNC(=O)[C@@H](N)CSSC[C@H](N)C(=O)N[C@@H]([C@@H](C)O)C(=O)N[C@@H](CC(=O)O)C(=O)NCC(=O)N[C@@H](C)C(=O)N[C@@H](CO)C(=O)N[C@@H](CCSC)C(=O)N[C@@H](CCCCN)C(=O)N[C@@H](CC(=O)O)C(=O)N[C@@H](CC(C)C)C(=O)N[C@@H](CO)C(=O)N[C@@H](C)C(=O)N[C@@H](CC(C)C)C(=O)N[C@H](C(=O)O)CSSC[C@@H](C(=O)NCC(=O)NCC(=O)N[C@@H](CO)C(=O)N[C@@H](CCNC(=N)N)C(=O)N[C@@H](Cc2cccc3ccccc23)C(=O)O)NC1=O (I: H-CGLEYIRTVIYICGGS[Agb][1Nal]-OH / II: H-CTDGASMKDLSALC-OH; disulfide I:1-II:1, I:13-II:14) | 1660
2 | 6.37 | – | – | 8.06 | – | – | – | inactive | 8.08 | – | CC[C@H](C)[C@@H]1NC(=O)[C@H](Cc2ccc(O)cc2)NC(=O)[C@H]([C@@H](C)CC)NC(=O)[C@H](C(C)C)NC(=O)[C@H]([C@@H](C)O)NC(=O)[C@H](CCCNC(=N)N)NC(=O)[C@H]([C@@H](C)CC)NC(=O)[C@H](Cc2ccc(O)cc2)NC(=O)[C@H](CCC(=O)O)NC(=O)[C@H](CC(C)C)NC(=O)CNC(=O)[C@@H](N)CSSC[C@H](N)C(=O)N[C@@H]([C@@H](C)O)C(=O)N[C@@H](CC(=O)O)C(=O)NCC(=O)N[C@@H](CS)C(=O)N[C@H](CO)C(=O)N[C@@H](CCSC)C(=O)N[C@@H](CCCCN)C(=O)N[C@@H](CC(=O)O)C(=O)N[C@@H](CC(C)C)C(=O)N[C@@H](CO)C(=O)N[C@@H](C)C(=O)N[C@@H](CC(C)C)C(=O)N[C@H](C(=O)O)CSSC[C@@H](C(=O)N[C@@H](C)C(=O)N[C@@H](CO)C(=O)N[C@@H](CO)C(=O)N[C@@H](CCCNC(=N)N)C(=O)N[C@@H](Cc2c[nH]c3ccccc23)C(=O)O)NC1=O | 49
3 | 6.71 | – | – | 8.11 | – | 7.21 | – | inactive | 8.10 | 295 | CC[C@H](C)[C@@H]1NC(=O)[C@H](Cc2ccc(O)cc2)NC(=O)[C@H]([C@@H](C)CC)NC(=O)[C@H](C(C)C)NC(=O)[C@H]([C@@H](C)O)NC(=O)[C@H](CCCNC(=N)N)NC(=O)[C@H]([C@@H](C)CC)NC(=O)[C@H](Cc2ccc(O)cc2)NC(=O)[C@H](CCC(=O)O)NC(=O)[C@H](CC(C)C)NC(=O)CNC(=O)[C@@H](NC(=O)[C@H](CC(C)C)NC(=O)[C@H](CCCNC(=N)N)NC(=O)[C@@H](NC(=O)[C@H](CO)NC(=O)[C@H](CCC(=O)O)NC(=O)[C@@H](N)CCCCN)C(C)C)CSSC[C@H](N)C(=O)N[C@@H]([C@@H](C)O)C(=O)N[C@@H](CC(=O)O)C(=O)NCC(=O)N[C@@H](CS)C(=O)N[C@H](CO)C(=O)N[C@@H](CCSC)C(=O)N[C@@H](CCCCN)C(=O)N[C@@H](CC(=O)O)C(=O)N[C@@H](CC(C)C)C(=O)N[C@@H](CO)C(=O)N[C@@H](C)C(=O)N[C@@H](CC(C)C)C(=O)N[C@H](C(=O)O)CSSC[C@@H](C(=O)N[C@@H](C)C(=O)N[C@@H](CO)C(=O)N[C@@H](CO)C(=O)N[C@@H](CCCNC(=N)N)C(=O)N[C@@H](Cc2c[nH]c3ccccc23)C(=O)O)NC1=O | 38
